These results are taken from patent US5869500A, “Pyridone compounds useful in treating Alzheimer's disease” (Hoffmann-La Roche Inc., priority 1996, dated 1999).

The structures appear in SMILES notation. Structures can show the parent of a compound that is named as a salt.

Experiment [1] deals with Aβ production in HEK cells over-expressing Wild type β-APP. Put plainly: Aβ production inhibition, sandwich-ELISA in HEK cells which over-express Wild type β-APP (SE-WT). The conditions noted are these: Homo sapiens; for IC50: HEK293, based on the respective plateau of maximum inhibition; for Emax: HEK293, maximum inhibition plateau, read-out: SE-WT max. inhibition %. It counts as cell-based, human. The procedure:
The effect of test substances on the inhibition of Aβ-amyloid production can be measured in the supernatant of cell cultures of β-APP expressed cells using ELISA tests or other quantitative determination methods for β-APP degradation products. Typically, 8×10^5 cells (e.g. HEK cells, which express recombinant human β-APP variants) are plated out in each well of a culture dish having 24 wells in growth media such as e.g. OPTIMEM (Gibco) and the test compound is then added. After an incubation period of 24 to 48 hours at 37° C. in a 10% CO2 atmosphere the supernatant is removed from the cell cultures and the β-APP degradation products (e.g. Aβ or β-[…]) are determined with the aid of ELISA (or sandwich ELISA) analysis or by means of quantitative immunoprecipitation (after metabolic radiolabelling of the cell proteins). Typically, 300 μl of the cell supernatant are tested according to the state of the art for ELISA tests in culture dishes having 96 wells. In the case of sandwich ELISA for Aβ, the binding antibody can be directed against the first 16 amino acids of Aβ-peptide (e.g. 6E10 Senetek, Maryland Heights, Mo.) and the detection antibody can be directed against amino acids 17-40 or 17-42 of Aβ and carries a detection system such as e.g. peroxidase. A simple ELISA test with an antibody, e.g. 22C11 (Boehringer Mannheim), can be used as the test for […]; the second antibody can be an anti-(mouse) Ig having a detection system, such as e.g. peroxidase. The peroxidase reaction can be carried out e.g. using a TMB substrate (BioRAD) and the measurements can be carried out at 650 nm using an ELISA reading apparatus. […] SE-SFAD signifies the Aβ production inhibition measured using sandwich-ELISA in HEK cells, SFAD signifies over-expressed mutated β-APP, and SE-WT signifies the Aβ production inhibition measured using sandwich-ELISA in HEK cells which over-express Wild type β-APP. The IC50 values are based on the respective plateau of maximum inhibition.
In general terms: In an ELISA, binding on a coated surface is turned into a signal by an enzyme label.

Experiment [2] relates to Aβ production in HEK cells over-expressing mutated β-APP (SFAD). Put plainly: Aβ production inhibition, sandwich-ELISA in HEK cells, over-expressed mutated β-APP (SE-SFAD). The class given is cell-based, human. The settings on record: for IC50: based on the respective plateau of maximum inhibition; for Emax: read-out: SE-SFAD max. inhibition %. The method, boiled down: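 HEK cells expressing recombinant human wild-type or mutated (SFAD) β-APP treated with compound for 24 to 48 hours at 37° C, 10% CO2. IC50 based on plateau of maximum inhibition.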

[3] abbreviates: Homo sapiens, HEK293, HEK cells.
Setting [4] is: Homo sapiens, HEK293, HEK cells, maximum inhibition plateau.

With `O=C(OCC#CCN1CCCC1)c1cc(-c2ccccc2)c(=O)n2ccc3ccsc3c12` [Compound 47, 4-(Pyrrolidin-1-yl)-but-2-ynyl 7-oxo-8-phenyl-7H-thieno[2,3-a]-quinolizine-10-carboxylate methanesulphonate], the IC50 in experiment [1] amounted to 1500 nM; in experiment [2] (setting [3]) it was 5000 nM. Further, the Emax in experiment [1] and in experiment [2] (setting [4]) was 55% throughout.

Regarding `CC(C)N(CC#CCOC(=O)c1cc(-c2ccccc2)c(=O)n2ccc3ccsc3c12)C(C)C` [Compound 48, 4-Diisopropylamino-but-2-ynyl 7-oxo-8-phenyl-7H-thieno[2,3-a]-quinolizine-10-carboxylate methanesulphonate], the concentration for half-maximal inhibition (IC50) was 3300 nM in experiment [1] and 12000 nM in experiment [2] (setting [3]). Further, the Emax in experiment [1] and in experiment [2] (setting [4]) was 100% each time.

As for `O=C(Nc1nccs1)c1cc(-c2ccccc2)c(=O)n2ccc3ccsc3c12` [Compound 49, 7-Oxo-8-phenyl-7H-thieno[2,3-a]quinolizine-10-carboxylic acid thiazol-2-yl-amide], the IC50 in experiment [1] amounted to 500 nM; in experiment [2] (setting [3]) it was 700 nM. In addition, the Emax in experiment [1] and in experiment [2] (setting [4]) was 50% each time.

With `COCC1CCCCN1C(=O)c1cc(-c2ccccc2)c(=O)n2ccc3ccsc3c12` (stereo not drawn) [Compound 50, 10-(2-Methoxymethyl-piperidine-1-carbonyl)-8-phenyl-thieno[2,3-a]-quinolizin-7-one], the 50% inhibitory concentration (IC50) in experiment [1] is 3600 nM; in experiment [2] (setting [3]), 5500 nM. Also, the Emax in experiment [1] and in experiment [2] (setting [4]) was 40% each time.

Turning to `CC(C)OC1CCN(C(=O)c2cc(-c3ccccc3)c(=O)n3ccc4ccsc4c23)C1` (stereo not drawn) [Compound 51, 10-(3-Isopropoxy-pyrrolidine-1-carbonyl)-8-phenyl-thieno[2,3-a]-quinolizin-7-one], the half-maximal inhibitory concentration (IC50) in experiment [1] came to 24000 nM; in experiment [2] (setting [3]), 60000 nM. For the same compound, the Emax in experiment [1] and in experiment [2] (setting [4]) was 100% each time.

In the case of `O=C(c1cc(-c2ccccc2)c(=O)n2ccc3ccsc3c12)n1ccnc1` [Compound 52, 10-(Imidazole-1-carbonyl)-8-phenyl-thieno[2,3-a]quinolizin-7-one], the half-maximal inhibitory concentration (IC50) in experiment [1] amounted to 12000 nM; in experiment [2] (setting [3]), 5000 nM. For the same compound, the Emax in experiment [1] came to 45%; in experiment [2] (setting [4]) it was 25%.

Regarding `CN(C)CCOC(=O)c1cc(-c2ccccc2)c(=O)n2ccc3ccsc3c12` [Compound 53, 2-Dimethylamino-ethyl 7-oxo-8-phenyl-7H-thieno[2,3-a]quinolizine-10-carboxylate hydrochloride], the values for the IC50 in experiment [1] and in experiment [2] (setting [3]) were 8000 nM and 9500 nM, respectively. Also, the Emax in experiment [1] stood at 100%; in experiment [2] (setting [4]), 80%.

For `CON(C)C(=O)c1cc(-c2ccccc2)c(=O)n2ccc3ccsc3c12` [Compound 54, 7--Oxo-8-phenyl-7H-thieno[2,3-a]quinolizine-10-carboxylic acid methoxy-methyl-amide], the half-maximal inhibitory concentration (IC50) in experiment [1] was 3000 nM; in experiment [2] (setting [3]) it was 6000 nM. For the same compound, the Emax was 40% in experiment [1] and 30% in experiment [2] (setting [4]).

Take `O=C(OCc1cccs1)c1cc(-c2ccccc2)c(=O)n2ccc3ccsc3c12` [Compound 55, Thiophen-2-yl-methyl 7-oxo-8-phenyl-7H-thieno[2,3-a]quinolizine-10-carboxylate]: the IC50 in experiment [1] turned out to be 5000 nM; in experiment [2] (setting [3]) it was 4000 nM. Besides, the Emax is 60% in experiment [1] and 50% in experiment [2] (setting [4]).

As to `CC(=O)c1cc(-c2ccccc2)c(=O)n2ccc3ccsc3c12` [Compound 58, 10-Acetyl-8-phenyl-thieno[2,3-a]quinolizine-7-one], the half-inhibitory concentration (IC50) was 200 nM in experiment [1] and 1000 nM in experiment [2] (setting [3]). The Emax in experiment [1] came out at 40%; in experiment [2] (setting [4]), 60%.

In the case of `CN(C)CC=CCOC(=O)c1cc(-c2ccccc2)c(=O)n2ccc3ccsc3c12` [Compound 59, 4-Dimethylamino-but-2-enyl 7-oxo-8-phenyl-7H-thieno[2,3-a]-quinolizine-10-carboxylate methanesulphonate], the 50% inhibitory concentration (IC50) came to 7000 nM in experiment [1] and 5000 nM in experiment [2] (setting [3]). The Emax in experiment [1] and in experiment [2] (setting [4]) was 100% each time.

For the compound `O=c1c(-c2ccccc2)cc(-c2nc(C3CC3)no2)c2c3sccc3ccn12` [Compound 62, 10-(3-Cyclopropyl-[1,2,4]oxadiazol-5-yl)-8-phenyl-thieno[2,3-a]-quinolizin-7-one], the values for the concentration for half-maximal inhibition (IC50) in experiment [1] and in experiment [2] (setting [3]) were 2700 nM and 500 nM, respectively. In addition, the Emax in experiment [1] is 80%; in experiment [2] (setting [4]) it was 65%.

For the compound `COC(=O)c1cc(-c2ccccc2)c(=O)n2c1-c1[nH]c3ccccc3c1CC2` [Compound 63, Methyl 4-oxo-3-phenyl-4,6,7,12-tetrahydro-indolo[2,3-a]quinolizine-1-carboxylate], the figures for the IC50 in experiment [1] and in experiment [2] (setting [3]) were 600 nM and 1000 nM, respectively. Further, the Emax came out at 45% in experiment [1] and 65% in experiment [2] (setting [4]).

As to `COCCN(CCOC)C(=O)c1cc(-c2ccc(OCc3ccccc3)cc2)c(=O)n2ccc3ccsc3c12` [Compound 67, 8-(4-Benzyloxy-phenyl)-7-oxo-7H-thieno[2,3-a]quinolizine-10-carboxylic acid bis-(2-methoxy-ethyl)-amide], the values for the 50% inhibitory concentration (IC50) in experiment [1] and in experiment [2] (setting [3]) were 600 nM and 800 nM, respectively. The Emax in experiment [1] was found to be 80%; in experiment [2] (setting [4]), 70%.

`COCCN(C(=O)c1cc(-c2ccc(OCc3ccccc3)cc2)c(=O)n2ccc3cc(Br)sc3c12)c1ccccc1` [Compound 77, 8-(4-Benzyloxy-phenyl)-2-bromo-7-oxo-7H-thieno[2,3-a]quinolizine-10-carboxylic acid (2-methoxy-ethyl)-phenyl-amide]: the 50% inhibitory concentration (IC50) in experiment [1] and in experiment [2] (setting [3]) was 200 nM throughout. Also, the Emax in experiment [1] came to 100%; in experiment [2] (setting [4]) it was 80%.

On to `COCCN(C(=O)c1cc(-c2ccc(OCc3ccccc3)cc2)c(=O)n2ccc3cc(I)sc3c12)c1ccccc1` [Compound 81, 8-(4-Benzyloxy-phenyl)-2-iodo-7-oxo-7H-thieno[2,3-a]quinolizine-10-carboxylic acid (2-methoxy-ethyl)-phenyl-amide], for which the half-maximal inhibitory concentration (IC50) in experiment [1] was 1200 nM; in experiment [2] (setting [3]), under 1000 nM. For the same compound, the Emax in experiment [1] came out at 100%; in experiment [2] (setting [4]), 50%.

In the case of `COC(=O)c1cc(-c2ccc(C(C)(C)C)cc2)c(=O)n2ccc3ccsc3c12` [Compound 106, Methyl 8-(4-tert-butyl-phenyl)-7-oxo-7H-thieno[2,3-a]quinolizine-10-carboxylate], the half-maximal inhibitory concentration (IC50) amounted to 800 nM in experiment [1] and 2300 nM in experiment [2] (setting [3]). Besides, the figures for the Emax in experiment [1] and in experiment [2] (setting [4]) were 95% and 85%, respectively.

Regarding `CCCN(CCOC)C(=O)c1cc(-c2ccc(C(C)(C)C)cc2)c(=O)n2ccc3ccsc3c12` [Compound 108, 8-(4-tert-Butyl-phenyl)-7-oxo-7H-thieno[2,3-a]quinolizine-10-carboxylicacid (2-methoxy-ethyl)-propyl-amide], the IC50 in experiment [1] stood at 1000 nM; in experiment [2] (setting [3]), 1400 nM. In addition, the Emax in experiment [1] and in experiment [2] (setting [4]) was 100% throughout.

Consider `COCCN(CCOC)C(=O)c1cc(-c2ccc(C(C)(C)C)cc2)c(=O)n2ccc3ccsc3c12` [Compound 109, 8-(4-tert-Butyl-phenyl)-7-oxo-7H-thieno[2,3-a]quinolizine-10-carboxylicacid bis-(2-methoxy-ethyl)-amide], for which the values for the IC50 in experiment [1] and in experiment [2] (setting [3]) were 800 nM and 7700 nM, respectively. Also, the Emax in experiment [1] and in experiment [2] (setting [4]) was 100% in each case.

In the case of `COc1cccc(-c2cc(C(=O)NCc3ccccc3)c3c4sccc4ccn3c2=O)c1` [Compound 116, 8-(3-Methoxy-phenyl)-7-oxo-7H-thieno[2,3-a]quinolizine-10-carboxylic acid benzyl-amide], the IC50 in experiment [1] amounted to 1000 nM; in experiment [2] (setting [3]), 800 nM. Also, the Emax in experiment [1] was 60 to 80%; in experiment [2] (setting [4]), 100%.

As for `COC(=O)c1cc(-c2ccccc2OC)c(=O)n2ccc3ccsc3c12` [Compound 129, Methyl 8-(2-methoxy-phenyl)-7-oxo-7H-thieno[2,3-a]quinolizine-10-carboxylate], in experiment [1], the IC50 came to 1500 nM and the Emax came to 85%. Also, half-maximal inhibition in experiment [2] (HEK cells) (IC50) required 2800 nM. The “SE-SFAD max. inhibition %” value in experiment [2] (HEK cells, maximum inhibition plateau) is listed as 75%.

The term IC50 denotes the concentration at which inhibition is half-maximal.
